The text below walks through data of patent US20170157000A1, “COSMETIC PRODUCT WITH LIPOSOMAL GROWTH FACTORS” (DERMOPARTNERS, S.L., priority 2014, published 2017).

Assay [1] has as its system human keratinocytes (HaCaT). Put plainly: MTT cell proliferation assay in human keratinocytes. It is filed as cell-based. As to conditions: 72 hours. An excerpt: (§1) This assay is based on metabolic reduction of bromide 3-(4,5-dimethylthiazol-2-yl)-2,5-diphenyltetrazolium (MTT) carried out by the mitochondrial succinate dehydrogenase enzyme in a blue colored compound (formazan), allowing the mitochondrial functionality of the treated cells to be determined. This method has been very widely used to measure cell survival and proliferation. The quantity of live cells is proportional to the quantity of formazan produced. This method was developed by Mosmann in 1983, modified in 1986 by Francois Denizot and Rita Lang. • 1. Using trypsin, separate the cells and re-suspend them in supplemented culture medium (10% of bovine fetal serum and antibiotic). • 2. Determine the number of cells required per well using a Neubauer camera (HaCaT: 5,000 cells/96 well, 30,000 cells/24 well; HSF: 4,000 cells/96 well, 30,000 cells/24 well. • 3. Incubate at 37° C. and 5% of CO2 for 24 hours to allow for the adherence thereof. • 4. Prepare the mixtures of free and liposomated factor at the indicated concentrations, remove the medium and add the mixtures. • 5. Incubate at 37° C. and 5% of CO2 for 72 hours. • 6. Add MTT (1.9 mg/ml) in PBS solution (25 μl total) over the medium • 7. Incubate for 3 hours at 37° C. to allow for the formation of formazan crystals. • 8. Then remove the supernatant and add 100 μl of DMSO. • 9. Incubate for 30 minutes at 37° C. to allow for the formazan crystals to dissolve • 10. The optical density reading (OD) is carried out in a spectrophotometer at a wavelength of 570 nm. • The viability percentage is obtained in the following manner: % viability—DO cells treated×100/DO control cells
(In general: Tetrazolium dyes change colour on reduction, which living cells bring about.)

Assay [2] has as its system human fibroblasts (HSF). The experiment in a line: MTT cell proliferation assay in human fibroblasts. The format is cell-based. As to conditions: 72 hours.
From the text: as §1

For assay [3], the system named is human keratinocytes (HaCaT). Put plainly: Wound healing assay (cell migration) in human keratinocytes. It is filed as cell-based. As to conditions: 1 ng/ml; for wound closed more quickly than in the control cells: at 24 hours of treatment; for wound closure: at 48 hours. An excerpt: (§2) The objective of the wound healing assay is the study of cell migration. It is based on observing the behavior of a confluent cell monolayer on which a hole or wound has been previously made. The cells at the border of the hole move towards the opening until new cell-cell contacts are established, thus closing the wound.
(§3) The basic steps involve creating the wound or cell free area on the cell monolayer, the capture of images periodically during the experiment and the comparison of all the images to determine the velocity of cell migration.
• 1. Cultivate the cells until confluence (100% approx.) in plates of 6 wells (HaCaT: 500,000 cells/6 well; HSF: 500,000 cells/6 well) • 2. Incubate at 37° C. and 5% of CO2 for 24 hours. • 3. Scaling of the wounds (2 wounds per horizontal trajectory well using yellow sterile points (P200). They are dragged along the monolayer with an angle of inclination of 30 degrees (not perpendicular to the plate) and guided with a previously marked section. Mark three points for taking measurements. • 4. Leave to rest for 15 minutes before adding the treatment. • 5. Prepare the mixtures of free and liposomated factors at a concentration of 1 ng/ml, the medium is removed and add the mixtures. • 6. Incubate at 37° C. and 5% of CO2 for 72 hours. • 7. Take measurements at the times 0, 24, 48 and 72 hours.
The percentage of migration is obtained in the following manner:
(§4) % migration=(time measured 0−time measured X/time measured 0)*100

In assay [4] the test system is human fibroblasts (HSF). The experiment in a line: Wound healing assay (cell migration) in human fibroblasts. The format is cell-based. As to conditions: 1 ng/ml.
From the text: as §2, §3
• 1. Cultivate the cells until confluence (100% approx.) in plates of 6 wells (HaCaT: 500,000 cells/6 well; HSF: 500,000 cells/6 well) • 2. Incubate at 37° C. and 5% of CO2 for 24 hours. • 3. […]
as §4

In assay [5] the test system is transcripts of the gene of the elastin. Put plainly: Induction of elastin synthesis by quantitative PCR in keratinocytes. The note with it: control = value 1, dose dependent, 72 hours. It is filed as cell-based, human. The source says: (§5) PCR in real time or quantitative PCR is a variation of standard PCR used for quantifying DNA or messenger RNA (mRNA) of a sample. Using specific sequence primers, it is possible to determine the number of copies or the relative quantity of a determined DNA or RNA sequence.
(§6) When PCR in real time is combined with a retro-transcription or RT reaction (RTPCR), the mRNA quantity of a sample may be determined by means of a relative quantification. Said quantification is termed relative if the relative quantity or ratio of mRNA of a specific gene is compared with respect to the mRNA quantity of a constitutive gene (endogenous control, GAPDH in this case) among different samples. This is what is termed as normalization of the specific gene expression or normalizing with respect to the different total concentration of RNA of the samples since if the quantity of endogenous control varies it is due to changes in the total RNA quantity used in the synthesis of cDNA, not to changes in its expression. For the quantification, the quantity of amplicon produced is measured in each cycle of PCR. The quantification of the product is produced by means of the addition of fluorophores which join to the amplicon in a quantitative manner such that the greater the product, the greater the fluorescence that will be emitted. […]

Assay [6] has the same test system. The experiment in a line: Induction of elastin synthesis by quantitative PCR in fibroblasts. It is filed as cell-based, human. As to conditions: control = value 1, dose dependent, 72 hours.
From the text: as §5, §6

For a further assay, the system named is TNFa transcripts. The experiment in a line: Anti-inflammatory effect by quantitative PCR after LPS, TNFa transcripts. As to conditions: cells with prior inflammation induced with 200 ng/ml LPS for three hours, dose dependent. The format is cell-based, human.
From the text: as §5, §6

The next assay deals with IL6 transcripts. Put plainly: Anti-inflammatory effect by quantitative PCR after LPS, IL6 transcripts. It is filed as cell-based, human. As to conditions: cells with prior inflammation induced with 200 ng/ml LPS for three hours, dose dependent.
From the text: as §5, §6

Setting [7] is: concentrations greater than 1 ng/ml.
Setting [8] is: low concentrations 0.01 ng/ml-0.5 ng/ml, untreated cells = 100% proliferation.

Turning to “Nicotiana benthamiana Sh-Polypeptide-7 [HGH free factor]”, the “cell proliferation above the untreated cells” value in assay [1] (setting [7]) is “around 20%”. Further, the “cell proliferation (untreated cells = 100%)” value in the assay on human fibroblasts (HSF) [2] (concentration not given) and in the assay with human fibroblasts (HSF) [2] (setting [7]) was “around 100%” in each case. The “wound closed more quickly than in the control cells” value in assay [3] is reported as 40%. The wound closure entry in assay [3] is “completely closed”. The “repair velocity of the wound versus control cells” value in the assay on human fibroblasts (HSF) [4] is listed as “hardly any difference”. In addition, the “synthesis of elastin (elastin gene transcripts) with respect to the control cells” value in assay [5] and in assay [6] was “increase in the synthesis of elastin” each time. The “transcript levels of TNFa” value in the assay on TNFa transcripts is listed as “decrease”. Also, the “transcript levels of IL6” value in the assay with IL6 transcripts was “decrease”.
“Nicotiana benthamiana Sh-Polypeptide-45 [GM-CSF free factor]”: the “cell proliferation above the untreated cells” value in assay [1] (setting [7]) is “around 20%”; in assay [1] (setting [8]), 20%; in the assay with human fibroblasts (HSF) [2] (setting [7]), “around 60%”; with human fibroblasts (HSF) [2] (setting [8]), 100%. Further, the “wound closed more quickly than in the control cells” value in assay [3] was 13%. In addition, in assay [3], the wound closure result was “completely closed”. Moreover, the “repair velocity of the wound, more quickly with respect to the control” value in the assay with human fibroblasts (HSF) [4] is given as 20%. Besides, the “synthesis of elastin (elastin gene transcripts) with respect to the control cells” value in assay [5] and in assay [6] was “increase in the synthesis of elastin” in each case. Also, the “transcript levels of TNFa” value with TNFa transcripts is “decrease”. Also, the “transcript levels of IL6” value with IL6 transcripts is “decrease”.

B1: follistatin (protein, UniProt P19883 30-344, looked up)
Follistatin: GNCWLRQAKNGRCQVLYKTELSKEECCSTGRLSTSWTEEDVNDNTLFKWMIFNGGAPNCIPCKETCENVDCGPGKKCRMNKKNKPRCVCAPDCSNITWKGPVCGLDGKTYRNECALLKARCKEQPELEVQYQGRCKKTCRDVFCPGSSTCVVDQTNNAYCVTCNRICPEPASSEQYLCGNDGVTYSSACHLRKATCLLGRSIGLAYEGKCIKAKSCEDIQCTGGKKCLWDFKVGRGRCSLCDELCPDSKSDEPVCASDNATYASECAMKEAACSSGVLLEVKHSGSCNSISEDTEEEEEDEDQDYSFPISSILEW
notes: growth factor follistatin analyzed in free form
For the molecule B1, the “cell proliferation above the untreated cells” value with human fibroblasts (HSF) [2] (concentration of 0.5 ng/ml) is 40%; in the assay with human fibroblasts (HSF) [2] (setting [7]) it was “maintains cell proliferation around the control”.
